# Results taken from patent US11542475B2, “3D microphysiologic system” (Northwestern University, priority 2014, dated 2023).
# Where two headings read alike, the source gives them in different places.
# How the values were obtained:
# Stage 5b mouse follicles = test system: Stage 5b mouse follicles
# Protocol: Cisplatin (CDDP) and cyclophosphamide (CTX) were obtained from Sigma-Aldrich (St. Louis, Mo.) and used at final concentrations of: 0.2, 1, and 5 μM. Nalbuphine and Raclopride were obtained from the NIH Clinical Collection (South San Francisco, Calif.) and used at final concentrations of: 0.2, 1, and 5 μM. Corexit EC 9500A was obtained via a Material Transfer Agreement from Nalco (Sugar Land, Tex.). CE was used at final concentrations of: 5 ppm, 10 ppm, 25 ppm, 50 ppm, 75 ppm, 100 ppm, 125 ppm, 150 ppm, 200 ppm, 250 ppm, 300 ppm, 350 ppm and 400 ppm, which correspond to 4.75 mg/L, 9.5 mg/L, 23.75 mg/L, 47.5 mg/L, 71.25 mg/L, 95 mg/L, 118.75 mg/L, 142.5 mg/L, […], 237.5 mg/L, 285 mg/L, 332.5 mg/L and 380 mg/L.
# All experiments were performed using CD-1 female mice (Harlan Laboratories, Indianapolis, Ind.) that were housed in a controlled barrier facility at Northwestern University's Center of Comparative Medicine under constant temperature, humidity and light (12 h light/12 h dark). Food and water were provided ad libitum. All animal experiments were approved by the Institutional Animal Care and Use Committee and were in accordance with National Institutes of Health Guidelines. For follicle isolation, ovaries were dissected from 14-15-day-old mice and cut into 4 pieces. The tissue was incubated for 1 hour in L15 media (Invitrogen, Carlsbad, Calif., USA) containing 2% Liberase™ (Roche, Indianapolis, Ind.) and 1% DNase I (Worthington, Lakewood, N.J.). The enzymatic digestion was quenched by rinsing follicles in αMEM Glutamax (Invitrogen) containing 1% Fetal Bovine Serum (FBS, Invitrogen, Carlsbad, Calif.) and 0.5% Pen-Strep (Mediatech, Herndon, Va.). Type 5b multilayer secondary follicles (140-175 μm in diameter) were manually collected and cultured individually in wells of a 96-well plate (Pedersen and Peters, 1968; herein incorporated by reference in its entirety).
# Follicles were cultured at 37° C. in a humidified atmosphere of 5% CO2 in air for up to 6 days. All chemical exposures were initiated on day 2 of culture. Half of the culture media was replaced with fresh GM every other day and spent media was stored at −20° C. for use in steroid hormone assays. Follicles were imaged at each media change using a Leica DM IRB inverted microscope equipped with 4× and 20× objectives (Leica Microsystems, Heidelberg, Germany) to assess survival, morphology and growth. Live follicles were defined as those that contained an oocyte surrounded completely by somatic cells. […] The percent of surviving follicles was calculated as the number of live follicles out of the total number of follicles plated. Antral cavity formation was assessed morphologically and characterized by the differentiation of outer layers of mural granulosa cells and inner layers of cumulus granulosa cells surrounding the oocyte as well as the presence of a fluid-filled structure.
# [1] = test system: human fallopian fimbriae FTE; assay: 3D human fimbriae culture: FTE proliferation by BrdU labeling; assay type: cell-based; settings: insulin 5 μg/ml (ITS), H2O2 1 mM, E2 10 nM, n=6
# Protocol: (§1) Tissues were micro-dissected in alpha-MEM (Gibco, Carlsbad, Calif.) with 1% penicillin-streptomycin (Invitrogen, Carlsbad, Calif.). Individual fimbriae were separated into ˜50 mm^3 pieces. A portion of the tissue was fixed in 2% paraformaldehyde for use as an uncultured control. For optimization studies, fimbriae were cultured without matrix, encapsulated in 0.5% alginate, or encapsulated in 0.5% alginate with 1 mg/ml collagen and 0.1% fibronectin, as previously described for murine cultures (King et al. J Vis Exp. 2011.; herein incorporated by reference in its entirety). For subsequent treatments, 0.5% alginate encapsulated fimbriae were randomly assigned to treatment groups, with at least five fimbriae per condition, per patient, in a 24-well plate containing alpha-MEM and 1% penicillin-streptomycin. […] Prior to fixation, fimbriae were labeled with 10 μM bromodeoxyurine (BrdU, Sigma-Aldrich) for 24 hours to denote proliferating cells. Fimbriae cultures were fixed (2% paraformaldehyde) followed by dehydration in ethanol and xylene, and embedment in paraffin.
# Sections (5 μm) were cut and stained via hematoxylin and eosin for morphological analysis or immunohistochemistry was performed to localize proteins of interest as previously described (King et al. Endocr Relat Cancer. 2011. 18:627-42.; herein incorporated by reference in its entirety). Slides were rehydrated through an ethanol gradient, prior to 0.1M sodium citrate retrieval and peroxidase block. Tissues probed for BrdU were exposed to 4M HCl and 0.1M NaB4O7(Fisher Scientific) to denature DNA. All immunohistochemical reagents were obtained from Vector Laboratories, Inc (Burlingame, Calif.) unless otherwise stated. Tissues were blocked in 3% bovine serum albumin (Gemini, West Sacramento, Calif.)-TBS/10% serum and incubated with a primary antibody 1:50 acetylated tubulin (Cell Signaling, Cambridge, Mass.); 1:200 BrdU (AbCam, Cambridge, Mass.); 1:100 cytokeratin 8 (CK8, Developmental Studies Hybridoma Bank, Iowa City, Iowa); 1:50 p53 (Santa Cruz, Santa Cruz, Calif.); 1:100 PAX8 (Proteintech, Chicago, Ill.); 1:100 pH2AX (Cell Signaling); or 1:75 PR (Santa Cruz)) overnight at 4°. Tissues were washed in TBS-0.1% Tween and incubated with a secondary antibody (1:200), before being probed with ABC peroxidase standard, followed by detection with 3,3′-diaminobenzidine (DAB) and counterstained with hematoxylin.
# Immunohistochemistry images were taken via a Nikon E600 microscope, DXM1200 digital camera and NIS Elements software (Nikon Instruments, Melville, N.Y.). For proliferation analysis, concurrent sections were stained for CK8 and BrdU. BrdU sections were imaged and epithelial cells (CK8 positive) were quantified for proliferation via ImageJ software (NIH, Bethesda, Md.). At least three fimbriae with 200 or more FTE were quantified for each treatment. […] Samples with p53 expression were quantified utilizing adjacent sections stained for the secretory cell marker PAX8 in a qualitative manner as described.
# p53 stabilization in FTE = assay: 3D human fimbriae culture: p53 immunohistochemistry; assay type: cell-based; settings: 2 and 7 days treatment, n=8
# Protocol: as §1
# Sections (5 μm) were cut and stained via hematoxylin and eosin for morphological analysis or immunohistochemistry was performed to localize proteins of interest as previously described (King et al. Endocr Relat Cancer. 2011. 18:627-42.; herein incorporated by reference in its entirety). Slides were rehydrated through an ethanol gradient, prior to 0.1M sodium citrate retrieval and peroxidase block. […]
# Immunohistochemistry images were taken via a Nikon E600 microscope, DXM1200 digital camera and NIS Elements software (Nikon Instruments, Melville, N.Y.). […] BrdU sections were imaged and epithelial cells (CK8 positive) were quantified for proliferation via ImageJ software (NIH, Bethesda, Md.). At least three fimbriae with 200 or more FTE were quantified for each treatment. Analysis of p53 staining was similar, with at least three fimbriae per treatment, per patient analyzed. Samples with p53 expression were quantified utilizing adjacent sections stained for the secretory cell marker PAX8 in a qualitative manner as described.
# [2] = test system: OVGP1 expression in human fallopian epithelium; assay: OVGP1 immunoblot of cultured fallopian epithelium lysate; assay type: cell-based
# Protocol: (§2) Human fallopian tissue was obtained from routine hysterectomies from women in their reproductive years (ages range from 26 to 50 years old) and who had not undergone exogenous hormonal treatment for at least three months prior to surgery. Informed consent was obtained from each patient and approval granted by the ethics committee of the Northwestern University. Human fallopian tissue was kept in the DMEM/F12 medium with 10% FBS on ice and processed within 24 hours. The tissue was washed with warm PBS solution two times before being transferred into warm dissection medium (Liebowitz 15 with 0.5% P/S and 10% FBS). After cleaning connective tissue from outside of the fallopian tissue, the fallopian tube was cut open and the inner epithelia layer was mechanically dissected using forceps. […] Tissue was cultured on 0.4 μm pore Millicell inserts (PICM03050, EMD Millipore Co, Billerica, Mass., USA) twelve-well plates with culture medium in a 37° C. and 5% CO2 incubator. Estrogen (E2) and progesterone (P4) used in tissue culture experiments were purchased from Sigma (St. Louis, Mo.).
# (§3) Cultured human fallopian epithelia layers were homogenized with a minipestle in ice-cold lysis buffer (20 mM Tris-HCl, pH 8.0, 137 mM NaCl, 10% glycerol, 1% NP-40, 2 mM EDTA). Lysate normalized for protein content was loaded into NuPAGE 4-12% gradient Bis-Tris precast SDS-PAGE gels and transferred to a nitrocellulose membrane (Life Technologies, Carlsbad, Calif., USA). Blots were probed by polyclonal anti-OVGP1 antibody (LsBio, Cambridge, Mass.) overnight in 4° C. followed by anti-rabbit secondary antibody conjugated to horseradish peroxidase (Zymed, San Francisco, Calif.). Proteins were detected by ECL primer (GE HealthCare Life Sciences, Pittsburgh, Pa.) and exposed to X-ray film (Kodak, Rochester, N.Y.). The same blot was stripped using stripping buffer (Thermo Scientific, Hanover Park, Ill.) and re-probed with monoclonal anti-α-tubulin (Sigma, St. Louis, Mo.) followed by an anti-mouse secondary antibody conjugated to horseradish peroxidase. NIH ImageJ Imaging Software was used to quantify the density of western blot bands. Conditioned medium from fallopian epithelia cultures was collected and probed via western blot analysis using a polyclonal anti-hIGF1 antibody (abcam, Cambridge, Mass.). The blot was detected by the same method described above.
# [3] = test system: human fallopian tube epithelium; assay: Fallopian epithelia cilia beating quantification; assay type: cell-based; settings: 7 days culture; P4 added to E2
# Protocol: Human fallopian tissue was obtained from routine hysterectomies from women in their reproductive years (ages range from 26 to 50 years old) and who had not undergone exogenous hormonal treatment for at least three months prior to surgery. Informed consent was obtained from each patient and approval granted by the ethics committee of the Northwestern University. Human fallopian tissue was kept in the DMEM/F12 medium with 10% FBS on ice and processed within 24 hours. The tissue was washed with warm PBS solution two times before being transferred into warm dissection medium (Liebowitz 15 with 0.5% P/S and 10% FBS). After cleaning connective tissue from outside of the fallopian tissue, the fallopian tube was cut open and the inner epithelia layer was mechanically dissected using forceps. […]
# Fallopian epithelia layers were cultured in estradiol (E2) 1 nM, E2 1 nM+progesterone (P4) 10 nM, E2 0.1 nM+P4 50 nM or with solvent only negative control for 7 days. Cilia beating movies were acquired using an Andor Spinning Disk Confocal with 5 ms exposure time and 5 ms readout time. […] The Multiple Kymograph plugin for the NIH ImageJ software was used to quantify cilia beating frequency. In each movie, 8 clusters of cilia were picked for the cilia beating quantification.
# [4] = test system: IGF1 secretion by human fallopian epithelium; assay: hIGF1 immunoblot of fallopian epithelium conditioned medium; assay type: cell-based
# Protocol: as §2, §3
# Fallopian epithelia layers cultured on […] inserts were pre-cultured in the alpha-MEM with 0.3% BSA, ITS and 1% P/S medium for two days. Cell culture medium was collected for the glucose ELISA assay (abcam, Cambridge, Mass.). Medium was diluted 1:500 and ELISA was performed according to the protocol provided by the kit. […]
# endometrial cells = assay: Cell survival Wst-1 assay in endometrial cells cultured in 2D; assay type: cell-based, human; settings: 2D culture, 72 hours
# [5] = 28 days stepwise E2 and P4 treatment, P4 in the presence of E2
Compound,"follicle survival (Stage 5b mouse follicles; 1 μM, day 4 of culture) [%]","follicle survival (Stage 5b mouse follicles; 1 μM, day 6 of culture) [%]","follicle survival (Stage 5b mouse follicles; 5 μM, day 4 of culture) [%]","follicle survival (Stage 5b mouse follicles; 5 μM, day 6 of culture) [%]","FTE proliferation (percentage of total FTE cells, BrdU) ([1]; 7 days in culture) [%]",p53 stabilization (p53 stabilization in FTE),further results
"[NH2][Pt]([NH2])([Cl])[Cl] [CDDP, Cisplatin]",76.31,58.38,47.83,12.56,,,concentration at which complete release of the oocyte from the follicle was first observed (Stage 5b mouse follicles): 5000 nM
"O=P1(N(CCCl)CCCl)NCCCO1 (centres unmarked) [CTX, cyclophosphamide]",57.23,32.43,36.41,11.49,,,"follicle survival (Stage 5b mouse follicles; 0.2 μM, day 6 of culture (treated on day 2)): 71.8%; follicle morphology (Stage 5b mouse follicles; increasing concentrations (0.2, 1, 5 μM)): disorganized follicles with dark granulosa cells and little evidence of antral cavity formation; concentration at which complete release of the oocyte from the follicle was first observed (Stage 5b mouse follicles; most severe phenotype): 1000 nM"
OO [H2O2],,,,,2.2±0.5,no factor notably induced p53 stabilization,"FTE proliferation (percentage of total FTE cells, BrdU) ([1]; 2 days in culture): 4.0±1.1%"
"CC(=O)[C@H]1CC[C@H]2[C@@H]3CCC4=CC(=O)CC[C@]4(C)[C@H]3CC[C@]12C [P4, progesterone]",,,,,,,"OVGP1 expression in the fallopian lysate ([2]; 7 days culture, P4 added to E2): suppressed; OVGP1 expression [2, 5]: suppressed; cilia beating frequency (CBF) [3]: decreased; IGF1 secretion ([4]; 7 days culture, 1 nM E2, P4 added to E2): attenuated; IGF1 secretion [4, 5]: suppressed"
C[C@]12CC[C@H]3[C@@H](CCC4=CC(=O)CC[C@@]43C)[C@@H]1CC[C@@H]2O [testosterone],,,,,,,toxicity on endometrial cells (cell survival) (endometrial cells): no toxicity
Insulin: insulin 5 μg/ml given via ITS supplement (insulin; transferrin; selenite),,,,,4.1±0.9,no factor notably induced p53 stabilization,
